{"source": "ChEMBL document CHEMBL3616426", "about": "(Eur J Med Chem, 2015)", "key": {"Rattus norvegicus [1]": {"tested_on": "Rattus norvegicus", "assay": "Antiosteoporotic activity in ovariectomized Sprague-Dawley rat assessed as serum osteocalcin level at 10 ug/kg, po qd at 18th week by enzyme immunoassay (reference value: 1118.9 +/- 37.77 ng/ml)", "assay_type": "functional"}, "Rattus norvegicus [2]": {"tested_on": "Rattus norvegicus", "assay": "Antiosteoporotic activity in ovariectomized Sprague-Dawley rat assessed as trabecular thickness recovery at 10 ug/kg, po qd measured at 18th week by micro-CT analysis relative to SHAM control", "assay_type": "functional, Trabecula"}, "Rattus norvegicus [3]": {"tested_on": "Rattus norvegicus", "assay": "Antiosteoporotic activity in ovariectomized Sprague-Dawley rat assessed as bone volume /tissue volume at 3 ug/kg, po qd at 6th week by micro-CT analysis (reference value: 41.33 +/- 5.04%)", "assay_type": "functional"}, "Rattus norvegicus [4]": {"tested_on": "Rattus norvegicus", "assay": "Antiosteoporotic activity in ovariectomized Sprague-Dawley rat assessed as bone volume /tissue volume at 10 ug/kg, po qd at 6th week by micro-CT analysis (reference value: 41.33 +/- 5.04%)", "assay_type": "functional"}, "Mus musculus": {"tested_on": "Mus musculus", "assay": "Acute toxicity in ICR mouse assessed as survival at 5000 ug/kg, po after 2 weeks", "assay_type": "organism-based", "conditions": "in vivo, 5 mg/kg, 336 h"}, "Rattus norvegicus [5]": {"tested_on": "Rattus norvegicus", "assay": "Antiosteoporotic activity in ovariectomized Sprague-Dawley rat assessed as trabecular separation at 10 ug/kg, po qd at 12th week by micro-CT analysis (reference value: 0.146 +/- 0.010 millimeter)", "assay_type": "functional, Trabecula"}, "Rattus norvegicus [6]": {"tested_on": "Rattus norvegicus", "assay": "Antiosteoporotic activity in ovariectomized Sprague-Dawley rat assessed as trabecular separation at 1 ug/kg, po qd at 18th week by micro-CT analysis (reference value: 0.234 +/- 0.021 millimeter)", "assay_type": "functional, Trabecula"}, "Rattus norvegicus [7]": {"tested_on": "Rattus norvegicus", "assay": "Antiosteoporotic activity in ovariectomized Sprague-Dawley rat assessed as decrease in serum osteocalcin level at 3 ug/kg, po qd at 18th week by enzyme immunoassay relative to SHAM control", "assay_type": "functional, organism-based"}, "Rattus norvegicus [8]": {"tested_on": "Rattus norvegicus", "assay": "Antiosteoporotic activity in ovariectomized Sprague-Dawley rat assessed as bone volume /tissue volume at 1 ug/kg, po qd at 6th week by micro-CT analysis (reference value: 41.33 +/- 5.04%)", "assay_type": "functional"}, "Rattus norvegicus [9]": {"tested_on": "Rattus norvegicus", "assay": "Antiosteoporotic activity in ovariectomized Sprague-Dawley rat assessed as trabecular separation recovery at 10 ug/kg, po qd measured at 18th week by micro-CT analysis relative to SHAM control", "assay_type": "functional, organism-based", "conditions": "Trabecula"}, "Rattus norvegicus [10]": {"tested_on": "Rattus norvegicus", "assay": "Antiosteoporotic activity in ovariectomized Sprague-Dawley rat assessed as prevention of bone mineral density loss at 1 to 3 ug/kg, po qd measured at 6th to 18th week by micro-CT analysis relative to OVX rat", "assay_type": "functional, organism-based"}, "Estrogen receptor beta": {"molecular_target": "Estrogen receptor beta (Homo sapiens, UniProt Q92731)", "sequence (Q92731 whole entry, the tested form may be a part)": "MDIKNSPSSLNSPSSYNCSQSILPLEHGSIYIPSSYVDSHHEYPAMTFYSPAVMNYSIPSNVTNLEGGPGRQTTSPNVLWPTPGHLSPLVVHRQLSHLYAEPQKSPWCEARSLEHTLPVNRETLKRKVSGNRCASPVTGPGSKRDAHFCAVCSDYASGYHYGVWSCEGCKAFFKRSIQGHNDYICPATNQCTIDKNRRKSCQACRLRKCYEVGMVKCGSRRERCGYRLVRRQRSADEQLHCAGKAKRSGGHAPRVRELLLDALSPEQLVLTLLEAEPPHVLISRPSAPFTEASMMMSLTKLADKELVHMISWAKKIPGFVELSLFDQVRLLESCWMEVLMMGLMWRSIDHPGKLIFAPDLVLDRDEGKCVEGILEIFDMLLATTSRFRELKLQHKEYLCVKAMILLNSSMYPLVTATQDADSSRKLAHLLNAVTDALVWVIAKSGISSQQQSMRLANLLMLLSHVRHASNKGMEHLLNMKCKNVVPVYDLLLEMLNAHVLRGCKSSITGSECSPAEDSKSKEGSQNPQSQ", "assay": "Agonist activity at ERbeta (248 to 510 amino acid residues) (unknown origin) assessed as induction of interaction with SRC1 after 24 hrs by yeast two-hybrid assay"}, "[11]": {"molecular_target": "T1, Estrogen receptor (Homo sapiens) (UniProt P03372)", "T1 sequence (whole entry)": "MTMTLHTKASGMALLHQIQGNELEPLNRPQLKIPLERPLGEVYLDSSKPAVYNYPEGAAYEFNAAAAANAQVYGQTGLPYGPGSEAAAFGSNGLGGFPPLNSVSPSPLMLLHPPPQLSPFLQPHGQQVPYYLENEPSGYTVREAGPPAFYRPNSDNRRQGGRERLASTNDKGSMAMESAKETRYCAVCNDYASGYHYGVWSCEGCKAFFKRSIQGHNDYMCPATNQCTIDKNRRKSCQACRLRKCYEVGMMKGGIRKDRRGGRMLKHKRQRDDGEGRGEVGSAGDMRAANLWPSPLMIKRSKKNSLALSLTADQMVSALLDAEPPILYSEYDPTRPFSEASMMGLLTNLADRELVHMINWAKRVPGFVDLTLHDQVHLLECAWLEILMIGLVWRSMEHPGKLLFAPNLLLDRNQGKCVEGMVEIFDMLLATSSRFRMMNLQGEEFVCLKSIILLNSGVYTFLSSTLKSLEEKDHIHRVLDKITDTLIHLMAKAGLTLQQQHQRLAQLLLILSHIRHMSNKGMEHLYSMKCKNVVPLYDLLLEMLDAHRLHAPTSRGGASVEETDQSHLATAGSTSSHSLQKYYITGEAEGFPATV", "assay": "Antagonist activity at ERalpha (301 to 553 amino acid residues) (unknown origin) assessed as inhibition of E2 induced interaction with SRC1 after 24 hrs by yeast-two-hybrid assay", "set-up": "concentration or dose not given beside the values"}, "[12]": {"assay": "n-octanol-water partition coefficient, log P of the compound after 24 hrs by HPLC analysis", "assay_type": "physicochemical"}, "Rattus norvegicus [13]": {"tested_on": "Rattus norvegicus", "assay": "Antiosteoporotic activity in ovariectomized Sprague-Dawley rat assessed as trabecular thickness at 1 ug/kg, po qd at 18th week by micro-CT analysis (reference value: 0.103 +/- 0.0044 millimeter)", "assay_type": "functional, Trabecula"}, "Rattus norvegicus [14]": {"tested_on": "Rattus norvegicus", "assay": "Antiosteoporotic activity in ovariectomized Sprague-Dawley rat assessed as trabecular thickness at 3 ug/kg, po qd at 18th week by micro-CT analysis (reference value: 0.103 +/- 0.0044 millimeter)", "assay_type": "functional, Trabecula"}, "Rattus norvegicus [15]": {"tested_on": "Rattus norvegicus", "assay": "Antiosteoporotic activity in ovariectomized Sprague-Dawley rat assessed as trabecular thickness at 1 ug/kg, po qd at 6th week by micro-CT analysis (reference value: 0.086 +/- 0.0069 millimeter)", "assay_type": "functional, Trabecula"}, "Rattus norvegicus [16]": {"tested_on": "Rattus norvegicus", "assay": "Antiosteoporotic activity in ovariectomized Sprague-Dawley rat assessed as bone mineral density recovery at 10 ug/kg, po qd measured at 18th week by micro-CT analysis relative to SHAM control", "assay_type": "functional"}, "Rattus norvegicus [17]": {"tested_on": "Rattus norvegicus", "assay": "Antiosteoporotic activity in ovariectomized Sprague-Dawley rat assessed as bone volume /tissue volume at 3 ug/kg, po qd at 12th week by micro-CT analysis (reference value: 31.61 +/- 2.39%)", "assay_type": "functional"}, "Rattus norvegicus [18]": {"tested_on": "Rattus norvegicus", "assay": "Antiosteoporotic activity in ovariectomized Sprague-Dawley rat assessed as trabecular thickness at 1 ug/kg, po qd at 12th week by micro-CT analysis (reference value: 0.070 +/- 0.0063 millimeter)", "assay_type": "functional, Trabecula"}, "Rattus norvegicus [19]": {"tested_on": "Rattus norvegicus", "assay": "Antiosteoporotic activity in ovariectomized Sprague-Dawley rat assessed as bone volume /tissue volume at 3 ug/kg, po qd at 18th week by micro-CT analysis (reference value: 27.36 +/- 1.99%)", "assay_type": "functional"}, "Rattus norvegicus [20]": {"tested_on": "Rattus norvegicus", "assay": "Antiosteoporotic activity in ovariectomized Sprague-Dawley rat assessed as serum osteocalcin level at 1 ug/kg, po qd at 12th week by enzyme immunoassay (reference value: 1055.8 +/- 14 ng/ml)", "assay_type": "functional"}, "Rattus norvegicus [21]": {"tested_on": "Rattus norvegicus", "assay": "Antiosteoporotic activity in ovariectomized Sprague-Dawley rat assessed as trabecular thickness at 3 ug/kg, po qd at 6th week by micro-CT analysis (reference value: 0.086 +/- 0.0069 millimeter)", "assay_type": "functional, Trabecula"}, "Rattus norvegicus [22]": {"tested_on": "Rattus norvegicus", "assay": "Antiosteoporotic activity in ovariectomized Sprague-Dawley rat assessed as trabecular separation at 10 ug/kg, po qd at 6th week by micro-CT analysis (reference value: 0.116 +/- 0.010 millimeter)", "assay_type": "functional, Trabecula"}, "Rattus norvegicus [23]": {"tested_on": "Rattus norvegicus", "assay": "Antiosteoporotic activity in ovariectomized Sprague-Dawley rat assessed as decrease in serum osteocalcin level at 10 ug/kg, po qd at 18th week by enzyme immunoassay relative to SHAM control", "assay_type": "functional, organism-based"}}, "note": "Calls of active or inactive are those of the source. The rule behind the calls is not given here.", "data": [{"molecule": "O=C1c2cc(O)cc(O)c2[C@@H](c2ccc(O)cc2)[C@@H]1c1cc(O)cc(O)c1", "note": "[ISOPAUCIFLORAL F]", "values": [{"measurement": "Activity", "setting": "Rattus norvegicus [1]", "value": 702.2, "unit": "ng/mL"}, {"measurement": "Activity", "setting": "Rattus norvegicus [2]", "value": 78, "unit": "%"}, {"measurement": "Activity", "setting": "Rattus norvegicus [3]", "value": 52.56, "unit": "%"}, {"measurement": "Activity", "setting": "Rattus norvegicus [4]", "value": 40.25, "unit": "%"}, {"measurement": "Activity", "setting": "Mus musculus", "value": "Non-toxic"}, {"measurement": "Activity", "setting": "Rattus norvegicus [5]", "value": 0.138, "unit": "mm"}, {"measurement": "Activity", "setting": "Rattus norvegicus [6]", "value": 0.183, "unit": "mm"}, {"measurement": "Activity", "setting": "Rattus norvegicus [7]", "value": "Active"}, {"measurement": "Activity", "setting": "Rattus norvegicus [8]", "value": 40.38, "unit": "%"}, {"measurement": "Activity", "setting": "Rattus norvegicus [9]", "value": "inactive"}, {"measurement": "Activity", "setting": "Rattus norvegicus [10]", "value": "inactive"}, {"measurement": "EC50", "setting": "Estrogen receptor beta", "value": 47, "unit": "µM"}, {"measurement": "Activity", "setting": "[11]", "value": 9.45, "unit": "%"}, {"measurement": "logP at 24 h", "setting": "[12]", "value": 1.34}, {"measurement": "Activity", "setting": "Rattus norvegicus [13]", "value": 0.106, "unit": "mm"}, {"measurement": "Activity", "setting": "Rattus norvegicus [14]", "value": 0.102, "unit": "mm"}, {"measurement": "Activity", "setting": "Rattus norvegicus [15]", "value": 0.083, "unit": "mm"}, {"measurement": "Activity", "setting": "Rattus norvegicus [16]", "value": 90, "unit": "%"}, {"measurement": "Activity", "setting": "Rattus norvegicus [17]", "value": 41.01, "unit": "%"}, {"measurement": "Activity", "setting": "Rattus norvegicus [18]", "value": 0.086, "unit": "mm"}, {"measurement": "Activity", "setting": "Rattus norvegicus [19]", "value": 36.45, "unit": "%"}, {"measurement": "Activity", "setting": "Rattus norvegicus [20]", "value": 1172.9, "unit": "ng/mL"}, {"measurement": "Activity", "setting": "Rattus norvegicus [21]", "value": 0.092, "unit": "mm"}, {"measurement": "Activity", "setting": "Rattus norvegicus [22]", "value": 0.118, "unit": "mm"}, {"measurement": "Activity", "setting": "Rattus norvegicus [23]", "value": "Active"}]}]}
